Read-outs that look alike come from different tables or passages of the source.
What was measured:
[1] = test system: human skin explants; test: Whitening activity (ex vivo), Fontana-Masson staining for melanin quantification; format: cell-based; settings: at 2%, topical, 7 days
Procedure: Fresh human skin explants were obtained from skin phototype III and VI donors, aged of 46±25 years. […] Kojic acid (Sigma-Aldrich) at 2% was topically applied and incubated under the same conditions, serving as positive control. The untreated condition was treated with the vehicle (distilled water). The medium was renewed every other day. After the end of culture, the skin explants were sampled and put in formalin before being dehydrated and embedded in paraffin for Fontana-Masson staining.
Skin explants fixed in formalin were dehydrated and embedded in paraffin. Sections of 4 μm thickness were dewaxed and then stained by Fontana-Masson silver method for melanin.
Images were collected using an Axio Observer Inverted fluorescence microscope (Zeiss) in bright field mode.
Melanin was quantified using two open source optical imaging software programs. Photomicrographs (jpeg format) of Fontana-Masson tissue sections were opened in GIMP-GNU Image Manipulation Program. The brown-black color signals corresponding to melanin grains on stained sections were selected, copied and pasted into a new image and saved as a jpeg file; this jpeg file consists solely of black/brown (melanin grains) on a white background. This image was subsequently opened using the ImageJ program. The image was then inverted and the mean intensity was obtained.

[2] = test system: Lactobacillus acidophilus; settings: 1%, culture supernatant, NMR, vs untreated
Procedure: The supernatants of the cultures previously described in Example 10, both of the untreated strain culture and the culture of L. acidophilus treated with 1% EGCG MONOG were kept and frozen at −80° C. before analysis using high-field NMR. For each of these two conditions, three samples were analyzed to assess the tests reproducibility (n=3).
For each sample, 400 μl of supernatant were taken and 100 μl of D2O/TSP (3-(trimethylsilyl)propionic-2,2,3,3-d4 acid sodium salt, internal reference) were added at a concentration of 1 g/l. The samples were analyzed by high field ^1H NMR on a Bruker ASCEND 500 spectrometer operating at a proton frequency of 500 MHz using a 5 mm cryosonde probe. NMR spectra were calibrated to TSP-d4 at 0 ppm using Topspin software version 4.3.0 (Bruker Biospin, Germany). Quantification of metabolites was performed by utilizing the internal standard (TSP-d4) added at a known concentration. Compounds were quantified by the relative ratio of the intensities of their peak integrals and those of the internal standard.

[3] = test system: Normal Human Epidermal Keratinocytes (NHEKs); test: Antioxidant activity: ROS production in keratinocytes stressed with TBP (DCFH-DA probe); format: cell-based; settings: at 0.1%; TBP column = 100, Untreated = 27.5
Procedure: A 96 wells-plate was coated with a collagen I solution at 50 μg/ml. Normal Human Epidermal Keratinocytes (NHEKs) were seeded at 20′000 cells per well with four replicates. Cells were incubated for 24 hours in complete medium (Epilife, Gibco) supplemented with Human keratinocyte growth supplements (HKGS) factor (Gibco) and 1% antibiotics (Sigma) at 37° C. with 5% CO2. […] The evolution of the fluorescence was followed for 1 hour.

[4] = test system: spontaneous formation of Advanced Glycation End-products (AGEs); test: Anti-glycation in tubo assay (BSA + ribose, fluorescence); format: biochemical; settings: 17 h at 37° C.; for IC50: BSA + ribose, read-out: IC50 in well (concentration which inhibits AGEs formation by half)
Procedure: The anti-glycation effect was evaluated using an in tubo assay to measure the spontaneous formation of Advanced Glycation End-products (AGEs). This assay was conducted on a 96-wells microplate. […] The extracts were diluted in sodium phosphate buffer (0.1 M, pH 7.4). Several dilutions were tested. Each diluted extract was run in triplicate. A standard range of aminoguanidine was used as inhibitor reference (positive control). A mixture of the sodium phosphate buffer and BSA was used to validate the experiment and a mixture of sodium phosphate buffer, BSA and ribose was used as the positive control. Two blanks were carried out for the extract: • with phosphate buffer, BSA and extract • with phosphate buffer, ribose and extract The microplate was agitated and incubated for 17 h at 37° C. The fluorescence reading was performed with ? excitation 340 nm and ? emission 420 nm. The anti-glycation activity of the extract was calculated as follows: [formula] FI: Fluorescence of tested extract; blank extract (ribose or BSA); positive control; negative control. Based on the above measurements and calculation, the IC50, i.e. the concentration of the extract which inhibits AGEs formation by half, was calculated.

SMILES	reduction of melanin content compared to untreated [1]	decrease of consumption of sugars by L. acidophilus [2]	increase of Trigonelline released by L. acidophilus [2]	increase of polysorbate consumption by L. acidophilus [2]	ROS, Mean (% of untreated) [3]	IC50 ([4]; listed as ECGC monoglucoside)	IC50 [4]	Inhibition AGE's ([4]; tested concentration 0.08 mM)	Inhibition AGE's ([4]; tested concentration 0.4 mM)	Inhibition AGE's ([4]; tested concentration 1 mM)	Inhibition AGE's ([4]; tested concentration 8 mM)
O=C1O[C@H]([C@@H](O)CO)C(O)=C1O [Ascorbic acid, ascorbic acid]	28%	–	–	–	–	–	–	–	–	–	–
O=C(O[C@@H]1Cc2c(O)cc(O)cc2O[C@@H]1c1cc(O)c(O[C@H]2O[C@H](CO)[C@@H](O)[C@H](O)[C@H]2O)c(O)c1)c1cc(O)c(O)c(O)c1 [epigallocatechin gallate 4′-O-α-monoglucoside]	–	17%	up to 65%	51%	33.75 % of untreated	133 µM	118 µM	31.01%	53.22%	81.54%	109.26%

— patent US20260152777A1, “METHOD FOR PRODUCING EPIGALLOCATECHIN GALLATE MONOGLUCOSIDE” (GIVAUDAN SA, priority 2022, published 2026)
